According to US10259808B2 (Genentech, Inc., priority 2015, dated 2019):

What follows are compounds tested against T1, RORc ligand binding domain (Homo sapiens, UniProt P51449) (assay: In vitro RORc ligand binding assay (25-[3H]hydroxycholesterol displacement)).
T1 sequence (P51449 269-508 limits assumed): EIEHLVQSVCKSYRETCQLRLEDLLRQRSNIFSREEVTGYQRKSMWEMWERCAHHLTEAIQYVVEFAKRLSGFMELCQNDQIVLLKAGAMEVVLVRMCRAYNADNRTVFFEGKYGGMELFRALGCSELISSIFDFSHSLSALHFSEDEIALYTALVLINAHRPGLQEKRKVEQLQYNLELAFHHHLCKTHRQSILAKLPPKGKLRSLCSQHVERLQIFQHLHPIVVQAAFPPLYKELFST

Row | IC50 [nM] | SMILES
1 | 35.6 | C[C@H]1CC[C@H](c2ccccc2)S(=O)(=O)N1Cc1cc(F)c(C2(NC(=O)c3cocn3)COC2)cc1F [Example 96, N-[3-[2,5-difluoro-4-[[(3S,6R)-3-methyl-1,1-dioxo-6-phenyl-thiazinan-2-yl]methyl]phenyl]oxetan-3-yl]oxazole-4-carboxamide]
2 | 22.4 | C[C@H]1CC[C@H](c2ccccc2)S(=O)(=O)N1Cc1cc(F)c(C2(NC(=O)c3ccon3)COC2)cc1F [Example 97, N-[3-[2,5-difluoro-4-[[(3S,6R)-3-methyl-1,1-dioxo-6-phenyl-thiazinan-2-yl]methyl]phenyl]oxetan-3-yl]isoxazole-3-carboxamide]
3 | 58.7 | C[C@H]1CC[C@H](c2ccccc2)S(=O)(=O)N1Cc1cc(F)c(C2(N3C[C@@H](CO)OC3=O)CCOCC2)cc1F [Example 99, (5S)-3-[4-[2,5-difluoro-4-[[(3S,6R)-3-methyl-1,1-dioxo-6-phenyl-thiazinan-2-yl]methyl]phenyl]tetrahydropyran-4-yl]-5-(hydroxymethyl)oxazolidin-2-one]
4 | 2.6 | C[C@H]1CC[C@H](c2ccccc2)S(=O)(=O)N1Cc1cc(F)c(C2(NC(=O)Cc3ccon3)CCOCC2)cc1F [Example 104, N-[4-[2,5-difluoro-4-[[(3S,6R)-3-methyl-1,1-dioxo-6-phenyl-thiazinan-2-yl]methyl]phenyl]tetrahydropyran-4-yl]-2-isoxazol-3-yl-acetamide]
5 | 2.2 | C[C@H]1CC[C@H](c2ccccc2)S(=O)(=O)N1Cc1cc(F)c(C2(Nc3cnccn3)COC2)cc1F [Example 105, N-[3-[2,5-difluoro-4-[[(3S,6R)-3-methyl-1,1-dioxo-6-phenyl-thiazinan-2-yl]methyl]phenyl]oxetan-3-yl]pyrazin-2-amine]
6 | 5.1 | C[C@H]1CC[C@H](c2ccccc2)S(=O)(=O)N1Cc1cc(F)c(C2(NC(=O)c3cc(=O)[nH]o3)COC2)cc1F [Example 106, N-[3-[2,5-difluoro-4-[[(3S,6R)-3-methyl-1,1-dioxo-6-phenyl-thiazinan-2-yl]methyl]phenyl]oxetan-3-yl]-3-oxo-isoxazole-5-carboxamide]
7 | 2.7 | C[C@H]1CC[C@H](c2ccccc2)S(=O)(=O)N1Cc1cc(F)c(C2(NC(=O)c3ccon3)CCOCC2)cc1F [Example 107, N-[4-[2,5-difluoro-4-[[(3S,6R)-3-methyl-1,1-dioxo-6-phenyl-thiazinan-2-yl]methyl]phenyl]tetrahydropyran-4-yl]isoxazole-3-carboxamide]
8 | 19.2 | Cc1cncc(C(=O)NC2(c3cc(F)c(CN4[C@@H](C)CC[C@H](c5ccccc5)S4(=O)=O)cc3F)CCOCC2)n1 [Example 108, N-[4-[2,5-difluoro-4-[[(3S,6R)-3-methyl-1,1-dioxo-6-phenyl-thiazinan-2-yl]methyl]phenyl]tetrahydropyran-4-yl]-6-methyl-pyrazine-2-carboxamide]
9 | 112 | Cc1cncc(C(=O)NC2(c3cc(F)c(CN4[C@@H](C)CC[C@H](c5ccccc5)S4(=O)=O)cc3F)COC2)n1 [Example 109, N-[3-[2,5-difluoro-4-[[(3S,6R)-3-methyl-1,1-dioxo-6-phenyl-thiazinan-2-yl]methyl]phenyl]oxetan-3-yl]-6-methyl-pyrazine-2-carboxamide]
10 | 5.2 | C[C@H]1CC[C@H](c2ccccc2)S(=O)(=O)N1Cc1cc(F)c(C2(Nc3cnccn3)CCOCC2)cc1F [Example 118, N-[4-[2,5-difluoro-4-[[(3S,6R)-3-methyl-1,1-dioxo-6-phenyl-thiazinan-2-yl]methyl]phenyl]tetrahydropyran-4-yl]pyrazin-2-amine]

Continued, compound first:

Row | SMILES | IC50 [nM]
11 | Cc1cc(CNC2(c3cc(F)c(CN4[C@@H](C)CC[C@H](c5ccccc5)S4(=O)=O)cc3F)COC2)no1 [Example 95, 3-[2,5-difluoro-4-[[(3S,6R)-3-methyl-1,1-dioxo-6-phenyl-thiazinan-2-yl]methyl]phenyl]-N-[(5-methylisoxazol-3-yl)methyl]oxetan-3-amine] | 20.6
12 | C[C@H]1CC[C@H](c2ccccc2)S(=O)(=O)N1Cc1cc(F)c(C2(N3C[C@H](CO)OC3=O)CCOCC2)cc1F [Example 98, (5R)-3-[4-[2,5-difluoro-4-[[(3S,6R)-3-methyl-1,1-dioxo-6-phenyl-thiazinan-2-yl]methyl]phenyl]tetrahydropyran-4-yl]-5-(hydroxymethyl)oxazolidin-2-one] | 67.6
13 | C[C@H]1CC[C@H](c2ccccc2)S(=O)(=O)N1Cc1cc(F)c(C2(NCc3cnco3)COC2)cc1F [Example 100, 3-[2,5-difluoro-4-[[(3S,6R)-3-methyl-1,1-dioxo-6-phenyl-thiazinan-2-yl]methyl]phenyl]-N-(oxazol-5-ylmethyl)oxetan-3-amine] | 34.1
14 | C[C@H]1CC[C@H](c2ccccc2)S(=O)(=O)N1Cc1cc(F)c(C2(Nc3ncccn3)COC2)cc1F [Example 101, N-[3-[2,5-difluoro-4-[[(3S,6R)-3-methyl-1,1-dioxo-6-phenyl-thiazinan-2-yl]methyl]phenyl]oxetan-3-yl]pyrimidin-2-amine] | 60.7
15 | C[C@H]1CC[C@H](c2ccccc2)S(=O)(=O)N1Cc1cc(F)c(C2(N3CCOC3=O)CCOCC2)cc1F [Example 102, 3-[4-[2,5-difluoro-4-[[(3S,6R)-3-methyl-1,1-dioxo-6-phenyl-thiazinan-2-yl]methyl]phenyl]tetrahydropyran-4-yl]oxazolidin-2-one] | 55.3
16 | C[C@H]1CC[C@H](c2ccccc2)S(=O)(=O)N1Cc1cc(F)c(C2(NCc3ccon3)COC2)cc1F [Example 103, 3-[2,5-difluoro-4-[[(3S,6R)-3-methyl-1,1-dioxo-6-phenyl-thiazinan-2-yl]methyl]phenyl]-N-(isoxazol-3-ylmethyl)oxetan-3-amine] | 1.5
17 | Cc1cc(COC2(c3cc(F)c(CN4[C@@H](C)CC[C@H](c5ccccc5)S4(=O)=O)cc3F)COC2)no1 [Example 110, (3S,6R)-2-[[2,5-difluoro-4-[3-[(5-methylisoxazol-3-yl)methoxy]oxetan-3-yl]phenyl]methyl]-3-methyl-6-phenyl-thiazinane 1,1-dioxide] | 1.3
18 | C[C@H]1CC[C@H](c2ccccc2)S(=O)(=O)N1Cc1cc(F)c(C2(NC[C@@H]3CCC(=O)N3)COC2)cc1F [Example 111, (5S)-5-[[[3-[2,5-difluoro-4-[[(3S,6R)-3-methyl-1,1-dioxo-6-phenyl-thiazinan-2 yl]methyl]phenyl]oxetan-3-yl]amino]methyl]pyrrolidin-2-one] | 89.8
19 | COC1(OC)CC(c2nnc[nH]2)(c2cc(F)c(CN3[C@@H](C)CC[C@H](c4ccccc4)S3(=O)=O)cc2F)C1 [Example 112, (3S,6R)-2-[[4-[3,3-dimethoxy-1-(4H-1,2,4-triazol-3-yl)cyclobutyl]-2,5-difluoro-phenyl]methyl]-3-methyl-6-phenyl-thiazinane 1,1-dioxide] | 4.6
20 | C[C@H]1CC[C@H](c2ccccc2)S(=O)(=O)N1Cc1cc(F)c(C2(c3nnc[nH]3)CC(=O)C2)cc1F [Example 113, 3-[2,5-difluoro-4-[[(3S,6R)-3-methyl-1,1-dioxo-6-phenyl-thiazinan-2-yl]methyl]phenyl]-3-(4H-1,2,4-triazol-3-yl)cyclobutanone] | 8.1
21 | C[C@H]1CC[C@H](c2ccccc2)S(=O)(=O)N1Cc1cc(F)c(C2(c3nnc[nH]3)CC(F)(F)C2)cc1F [Example 114, (3S,6R)-2-[[4-[3,3-difluoro-1-(4H-1,2,4-triazol-3-yl)cyclobutyl]-2,5-difluoro-phenyl]methyl]-3-methyl-6-phenyl-thiazinane 1,1-dioxide] | 3.6
22 | C[C@H]1CC[C@H](c2ccccc2)S(=O)(=O)N1Cc1cc(F)c([C@]2(c3nnc[nH]3)C[C@@H](O)C2)cc1F [Example 115, 3-[2,5-difluoro-4-[[(3S,6R)-3-methyl-1,1-dioxo-6-phenyl-thiazinan-2-yl]methyl]phenyl]-3-(4H-1,2,4-triazol-3-yl)cyclobutanol] | 7.8
23 | C[C@H]1CC[C@H](c2ccccc2)S(=O)(=O)N1Cc1cc(F)c([C@]2(c3nnc[nH]3)C[C@H](O)C2)cc1F [Example 116, 3-[2,5-difluoro-4-[[(3S,6R)-3-methyl-1,1-dioxo-6-phenyl-thiazinan-2-yl]methyl]phenyl]-3-(4H-1,2,4-triazol-3-yl)cyclobutanol] | 37.9
24 | C[C@H]1CC[C@H](c2ccccc2)S(=O)(=O)N1Cc1cc(F)c(C2(N3CC(=O)NC3=O)COC2)cc1F [Example 117, 1-[3-[2,5-difluoro-4-[[(3S,6R)-3-methyl-1,1-dioxo-6-phenyl-thiazinan-2-yl]methyl]phenyl]oxetan-3-yl]imidazolidine-2,4-dione] | 25.9
25 | C[C@H]1CC[C@H](c2ccccc2)S(=O)(=O)N1Cc1cc(F)c(C2(c3n[nH]c(=O)o3)CC(=O)C2)cc1F [Example 119, 5-[1-[2,5-difluoro-4-[[(3S,6R)-3-methyl-1,1-dioxo-6-phenyl-thiazinan-2-yl]methyl]phenyl]-3-oxo-cyclobutyl]-3H-1,3,4-oxadiazol-2-one] | 1.8
26 | COC1(OC)CC(c2n[nH]c(=O)o2)(c2cc(F)c(CN3[C@@H](C)CC[C@H](c4ccccc4)S3(=O)=O)cc2F)C1 [Example 120, 5-[1-[2,5-difluoro-4-[[(3S,6R)-3-methyl-1,1-dioxo-6-phenyl-thiazinan-2-yl]methyl]phenyl]-3,3-dimethoxy-cyclobutyl]-3H-1,3,4-oxadiazol-2-one] | 5.7
27 | C[C@H]1CC[C@H](c2ccccc2)S(=O)(=O)N1Cc1cc(F)c(C2(c3n[nH]c(=O)o3)CC2)cc1F [Example 121, 5-[1-[2,5-difluoro-4-[[(3S,6R)-3-methyl-1,1-dioxo-6-phenyl-thiazinan-2-yl]methyl]phenyl]cyclopropyl]-3H-1,3,4-oxadiazol-2-one] | 19.5
